Test results as given in US11685719B2, “Pyridinone MK2 inhibitors and uses thereof” (Xinthera, Inc., priority 2021, dated 2023).

Key:
[1] = target: p38a/MK2 (Homo sapiens (Human), UniProt P49137+Q16539); experiment: biochemical; conditions: 10-point 1:3 dilution, top dose 1 μM; 10 μM ATP, 2 h incubation; read-out: p38a/MK2 (1 μM) Enzyme pIC50 (converted)
Protocol: (§1) Expression vectors of the recombinant MK2 and PRAK kinases were constructed by cloning of the codon optimized gene sequences of MK2 (Uniprot ID P49137, amino acid fragment F46-H400), or PRAK (Uniprot ID Q81W41, amino acid fragment M1-Q471) into pGEX-4T1 (GE) for over expression of these kinases with N-terminal GST-tag. Protein expression was carried out in E. coli BL21 by growing the hosts in TB medium, induction of protein expression with 0.5 mM IPTG at approximate 0.8 OD600, and incubation of the cultures at 18° C. for 14-20 hours afterwards. The harvested cells were resuspended in […] of Lysis buffer (50 mM Tris-HCl, pH 8.0, 500 mM NaCl, 1 mM DTT, 5% glycerol, and 1 mM PMSF) per gram of wet cell mass and homogenized at 4° C. in a microfluidizer (ATS, Suzhou, China) at 14,000 psi pressure, 3 passes. The cell lysates were clarified by centrifugation and the supernatants containing the GST-fusion proteins were purified by affinity chromatography using GSH-Sepharose (GE) gravity flow columns pre-equilibrated in Buffer A (50 mM Tris-HCl, pH 8.0, 500 mM NaCl, 1 mM DTT, and 5% glycerol). After thorough washing of the columns with Buffer A, the bound GST-proteins were eluted by Buffer B (50 mM Tris, pH 8.0, 500 mM NaCl, 1 mM DTT, 5% glycerol, 10 mM glutathione), followed by size-exclusion purification on Superdex 200 column equilibrated in Buffer A. The purified proteins were concentrated to approximately 1 mg/ml and stored at −80° C.
(§2) This study evaluates the inhibitory potency of invention compound on p38/MK2 pathway vs p38/PRAK pathway. More specially the compound concentration (IC50) was determined that inhibited half of the maximal activation of MK2 or PRAK by p38. MK2 activation study was set up without or with a serial of 10-point 1:3 dilution of invention compound at top dose of 1 or 10 μM, and PRAK activation study was set up without or with a serial of 10-point 1:3 dilution of invention compound at top dose of 300 μM. The MIK2 and PRAK activity were determined by the phosphorylation level of HSP27 peptide conjugated with FITC.

[2] = target: p38a/PRAK (Homo sapiens (Human), UniProt Q16539); experiment: biochemical; conditions: 10-point 1:3 dilution, top dose 300 μM; 10 μM ATP, 2 h incubation; read-out: p38a/PRAK Enzyme pIC50 (converted)
p38a/PRAK, sequence (Q16539 whole entry): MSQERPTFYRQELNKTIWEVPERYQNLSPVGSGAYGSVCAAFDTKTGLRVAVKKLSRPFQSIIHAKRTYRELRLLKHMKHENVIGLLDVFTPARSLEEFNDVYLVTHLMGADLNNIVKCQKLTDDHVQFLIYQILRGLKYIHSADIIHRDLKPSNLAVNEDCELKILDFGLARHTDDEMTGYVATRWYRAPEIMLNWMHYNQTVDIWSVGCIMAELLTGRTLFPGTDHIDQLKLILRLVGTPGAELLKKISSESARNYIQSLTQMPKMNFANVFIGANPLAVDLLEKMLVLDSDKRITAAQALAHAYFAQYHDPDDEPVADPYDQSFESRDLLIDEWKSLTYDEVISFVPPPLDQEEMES
Protocol: as §1, §2

p38a/MK2, sequence (Q16539 whole entry, the tested form may be a part): as the sequence (Q16539 whole entry) above
p38a/MK2, sequence (P49137 46-400): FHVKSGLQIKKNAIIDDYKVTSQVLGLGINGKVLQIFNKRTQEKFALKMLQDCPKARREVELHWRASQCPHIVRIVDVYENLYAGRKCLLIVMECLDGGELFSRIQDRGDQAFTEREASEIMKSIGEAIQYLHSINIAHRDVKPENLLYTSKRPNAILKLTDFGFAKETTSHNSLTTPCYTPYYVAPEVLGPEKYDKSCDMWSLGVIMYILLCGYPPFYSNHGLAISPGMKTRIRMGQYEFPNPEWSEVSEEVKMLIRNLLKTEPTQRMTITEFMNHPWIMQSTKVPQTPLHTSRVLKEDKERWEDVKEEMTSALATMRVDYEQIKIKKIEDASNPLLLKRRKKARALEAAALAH

Row | SMILES | IC50 [1] [nM] | IC50 [2] [nM]
1 | CCOC(=O)C(C)(C)n1nc(-c2cc(-n3c(C)cc(OCc4ncc(F)cc4F)c(Cl)c3=O)c(C)cn2)ccc1=O (atropisomer, axis not shown) [Example 6, ethyl 2-(3-{3-chloro-4-[(3,5-difluoropyridin-2-yl)methoxy]-5′,6-dimethyl-2-oxo-[1,4′-bipyridin]-2′-yl}-6-oxopyridazin-1-yl)-2-methylpropanoate] | 20 | 6310
2 | Cc1cnc(-n2cccc([C@@](C)(O)C3CC3)c2=O)cc1-n1c(C)cc(OCc2ncc(F)cc2F)c(Cl)c1=O (single isomer, unassigned) [Example 14B, rel-3-chloro-2′-[3-(1-cyclopropyl-1-hydroxyethyl)-2-oxopyridin-1-yl]-4-[(3,5-difluoropyridin-2-yl)methoxy]-5′,6-dimethyl-[1,4′-bipyridin]-2-one] | 1.26 | 3160
3 | Cc1cnc(-n2cccc(C(C)(C)CO)c2=O)cc1-n1c(C)cc(OCc2ncc(F)cc2F)c(Cl)c1=O (single isomer, unassigned) [Example 11A, rel-3-chloro-4-[(3,5-difluoropyridin-2-yl)methoxy]-2′-[3-(1-hydroxy-2-methylpropan-2-yl)-2-oxopyridin-1-yl]-5′,6-dimethyl-[1,4′-bipyridin]-2-one] | 3.98 | 5010
4 | Cc1cnc(-n2cccc([C@](C)(O)C3CC3)c2=O)cc1-n1c(C)cc(OCc2ncc(F)cc2F)c(Cl)c1=O (single isomer, unassigned) [Example 14A, rel-3-chloro-2′-[3-(1-cyclopropyl-1-hydroxyethyl)-2-oxopyridin-1-yl]-4-[(3,5-difluoropyridin-2-yl)methoxy]-5′,6-dimethyl-[1,4′-bipyridin]-2-one] | 1.58 | 3160
5 | Cc1ccc(-n2cccc(C(C)(C)O)c2=O)cc1-n1c(C)cc(OCc2ncc(F)cc2F)c(Cl)c1=O (single isomer, unassigned) [Example 2B, rel-3-chloro-4-[(3,5-difluoropyridin-2-yl)methoxy]-1-{5-[3-(2-hydroxypropan-2-yl)-2-oxopyridin-1-yl]-2-methylphenyl}-6-methylpyridin-2-one] | > 1000 | > 316000
6 | [2H]C([2H])(Oc1cc(C)n(-c2cc(-n3cccc(C(C)(C)O)c3=O)ncc2C)c(=O)c1Cl)c1ncc(F)cc1F (single isomer, unassigned) [Example 18A, rel-3″-chloro-4″-((3,5-difluoropyridin-2-yl)methoxy-d2)-3-(2-hydroxypropan-2-yl)-5′,6″-dimethyl-2H,2″H-[1,2′:4′,1″-terpyridine]-2,2″-dione] | 1.58 | 3160
7 | Cc1cnc(-n2cccc([C@](C)(O)C3CC3)c2=O)cc1-n1c(C)cc(OCc2ncc(F)cc2F)c(Cl)c1=O (single isomer, unassigned) [Example 14C, rel-3-chloro-2′-[3-(1-cyclopropyl-1-hydroxyethyl)-2-oxopyridin-1-yl]-4-[(3,5-difluoropyridin-2-yl)methoxy]-5′,6-dimethyl-[1,4′-bipyridin]-2-one] | > 1000 | > 316000
8 | Cc1cnc(-n2cccc(C3(O)CCC3)c2=O)cc1-n1c(C)cc(OCc2ncc(F)cc2F)c(Cl)c1=O (single isomer, unassigned) [Example 12A, rel-3-chloro-4-[(3,5-difluoropyridin-2-yl)methoxy]-2′-[3-(1-hydroxycyclobutyl)-2-oxopyridin-1-yl]-5′,6-dimethyl-[1,4′-bipyridin]-2-one] | 12.6 | 7940

More lines, now with the values ahead:

Row | IC50 [1] [nM] | IC50 [2] [nM] | SMILES
9 | 1 | 3160 | [2H]C([2H])(Oc1cc(C)n(-c2cc(-n3ccnc(C(C)(C)O)c3=O)ncc2C)c(=O)c1Cl)c1ncc(Cl)cc1F (single isomer, unassigned) [Example 20A, rel-3-chloro-4-((5-chloro-3-fluoropyridin-2-yl)methoxy-d2)-2′-(3-(2-hydroxypropan-2-yl)-2-oxopyrazin-1(2H)-yl)-5′,6-dimethyl-2H-[1,4′-bipyridin]-2-one]
10 | 12.6 | 2000 | Cc1cnc(-n2nccc(C(C)(C)O)c2=O)cc1-n1c(C)cc(OCc2ncc(F)cc2F)c(Cl)c1=O (single isomer, unassigned) [Example 9A, rel-3-chloro-4-[(3,5-difluoropyridin-2-yl)methoxy]-2′-[5-(2-hydroxypropan-2-yl)-6-oxopyridazin-1-yl]-5′,6-dimethyl-[1,4′-bipyridin]-2-one]
11 | 10 | 2510 | Cc1cnc(-n2ccc(C)c(C(C)(C)O)c2=O)cc1-n1c(C)cc(OCc2ncc(F)cc2F)c(Cl)c1=O (single isomer, unassigned) [Example 15A, rel-3-chloro-4-[(3,5-difluoropyridin-2-yl)methoxy]-2′-[3-(2-hydroxypropan-2-yl)-4-methyl-2-oxopyridin-1-yl]-5′,6-dimethyl-[1,4′-bipyridin]-2-one]
12 | 1 | 3160 | [2H]C([2H])(Oc1cc(C)n(-c2cc(-n3ccnc(C(C)(C)O)c3=O)ncc2C)c(=O)c1Cl)c1ncc(C)cc1F (single isomer, unassigned) [Example 28A, rel-3-chloro-4-[(3-fluoro-5-methylpyridin-2-yl)(2H2)methoxy]-2′-[3-(2-hydroxypropan-2-yl)-2-oxopyrazin-1-yl]-5′,6-dimethyl-[1,4′-bipyridin]-2-one]
13 | 2.51 | 3160 | [2H]C([2H])(Oc1cc(C)n(-c2cc(-n3ccc(F)c(C(C)(C)O)c3=O)ncc2C)c(=O)c1Cl)c1ncc(F)cc1F (single isomer, unassigned) [Example 26A, rel-3-chloro-4-[(3,5-difluoropyridin-2-yl)(2H2)methoxy]-2′-[4-fluoro-3-(2-hydroxypropan-2-yl)-2-oxopyridin-1-yl]-5′,6-dimethyl-[1,4′-bipyridin]-2-one]
14 | > 1000 | > 316000 | Cc1cnc(-n2cccc(C(C)(C)CO)c2=O)cc1-n1c(C)cc(OCc2ncc(F)cc2F)c(Cl)c1=O (single isomer, unassigned) [Example 11B, rel-3-chloro-4-[(3,5-difluoropyridin-2-yl)methoxy]-2′-[3-(1-hydroxy-2-methylpropan-2-yl)-2-oxopyridin-1-yl]-5′,6-dimethyl-[1,4′-bipyridin]-2-one]
15 | 316 | > 316000 | [2H]C([2H])(Oc1cc(C)n(-c2cc(-n3ccnc(C(C)(C)O)c3=O)ncc2C)c(=O)c1Cl)c1ncc(Cl)cc1F (single isomer, unassigned) [Example 20B, rel-3-chloro-4-((5-chloro-3-fluoropyridin-2-yl)methoxy-d2)-2′-(3-(2-hydroxypropan-2-yl)-2-oxopyrazin-1(2H)-yl)-5′,6-dimethyl-2H-[1,4′-bipyridin]-2-one]
16 | 2 | 3980 | [2H]C([2H])(Oc1cc(C)n(-c2cc(-n3ccnc(C(C)(C)O)c3=O)ncc2C)c(=O)c1Cl)c1ncc(F)cc1Cl (single isomer, unassigned) [Example 22A, rel-3-chloro-4-((3-chloro-5-fluoropyridin-2-yl)methoxy-d2)-2′-(3-(2-hydroxypropan-2-yl)-2-oxopyrazin-1(2H)-yl)-5′,6-dimethyl-2H-[1,4′-bipyridin]-2-one]
